Assay results reported in patent US20220361500A1, “STRIGOLACTONE DERIVATIVES AS PLANT GROWTH REGULATOR COMPOUNDS” (SYNGENTA CROP PROTECTION AG, priority 2020, published 2022).

System: corn leaf discs (variety Multitop)
Assay: Dark induced senescence of corn leaf
Details: Zea mays, foliar, 192 h, 100 μM-0.0001 μM, 0.5% DMSO, 23° C., 8 days, image analysis, read-out: IC50 (concentration at which 50% senescence was achieved), dark induced senescence of corn leaf
Experimental: It is known that strigolactones regulate (accelerate) leaf senescence, potentially through D14 receptor signaling. Corn plants of variety Multitop were grown in a greenhouse with relative 75% humidity and at 23-25° C. for 6 weeks. 1.4 cm diameter leaf discs were placed into 24-well plates containing test compounds in a concentration gradient (100 μM-0.0001 μM) at a final concentration of 0.5% DMSO. Each concentration was tested in 12 replicates. Plates were sealed with seal foil. The foil was pierced to provide gas exchange in each well. The plates were placed into the completely dark climatic chamber. Plates were incubated in the chamber with 75% humidity and at 23° C. for 8 days. On days 0, 5, 6, 7 and 8 photographs were taken of each plate, and image analysis conducted with a macro developed using the ImageJ software. The image analysis was used to determine the concentration at which 50% senescence was achieved (IC50), see Table 4. The lower the value, the higher senescence induction potency.

Row | IC50 [nM] | Compound
1 | 40 | CC1=C(C)C(O/C=C2/C(=O)OC3Sc4ccccc4C23)OC1=O (centres unmarked) [Compound I-8, (1E)-1-[(3,4-dimethyl-5-oxo-2H-furan-2-yl)oxymethylene]-3a,8b-dihydrobenzothiopheno[2,3-b]furan-2-one]
2 | 15 | CC1=C(C)C(O/C=C2/C(=O)OC3Oc4ccccc4C23)OC1=O (centres unmarked) [Compound I-2, (1E)-1-[(3,4-dimethyl-5-oxo-2H-furan-2-yl)oxymethylene]-3a,8b-dihydrofuro[2,3-b]benzofuran-2-one]

Second part, the compound before the results:

Row | Compound | IC50 [nM]
3 | CC1=CC(O/C=C2/C(=O)OC3Oc4ccccc4C23)OC1=O (centres unmarked) [Compound I-1, (1E)-1-[(4-methyl-5-oxo-2H-furan-2-yl)oxymethylene]-3a,8b-dihydrofuro[2,3-b]benzofuran-2-one] | 30
4 | CC1=CC(O/C=C2/C(=O)OC3COc4ccccc4C23)OC1=O (centres unmarked) [Compound I-31, (1E)-1-[(4-methyl-5-oxo-2H-furan-2-yl)oxymethylene]-4,9b-dihydro-3aH-furo[2,3-c]chromen-2-one] | 30
5 | CC1=CC(O/C=C2/C(=O)OC3C2c2ccccc2[S+]3[O-])OC1=O (centres unmarked) [Compound I-13, (1E)-1-[(4-methyl-5-oxo-2H-furan-2-yl)oxymethylene]-4-oxo-3a,8b-dihydrobenzothiopheno[2,3-b]furan-2-one] | 15
